Earlier results in patent publication US20240139276A1, “HAIR GROWTH AGENT” (ADJUVANT HOLDINGS CO., LTD., priority 2021, published 2024).

How the values were obtained:
[1] = tested on: fibroblast growth factor 7 (FGF-7) expression in human dermal papilla cells; details: adenosine allowed to act on human dermal papilla cells
[2] = tested on: vascular endothelial growth factor (VEGF) expression in human dermal papilla cells; details: adenosine allowed to act on human dermal papilla cells

SMILES: Nc1ncnc2c1ncn2[C@@H]1O[C@H](CO)[C@@H](O)[C@H]1O [adenosine]
- expression of fibroblast growth factor 7 (FGF-7) [1]: also promotes expression of fibroblast growth factor 7 (FGF-7)
- expression of vascular endothelial growth factor (VEGF) [2]: promotes expression of vascular endothelial growth factor (VEGF)
